The source of these data is patent US20240327364A1, “THERAPEUTIC TARGETING OF GPR68 TO INDUCE FERROPTOSIS” (University Of Maryland, Baltimore, priority 2023, published 2024).

Each structure is given as a SMILES string. Bounds are passed on as bounds.

For one assay, the target named is T1, PIK3CA (Homo sapiens, UniProt P42336).
T1 construct: purchased DiscoveRx (Fremont, CA)
Kind of assay: KinomeScan. The format is binding. Conditions: read-out: % Control.

A further assay concerns the target CLK1 (Homo sapiens, UniProt P49759). Kind of assay: KinomeScan. The assay is classed as binding. Conditions: read-out: % Control.
In a further assay the target is T2, BMPR1A (Homo sapiens, UniProt P36894).
T2 construct: purchased DiscoveRx (Fremont, CA)
T2 sequence (P36894 24-532): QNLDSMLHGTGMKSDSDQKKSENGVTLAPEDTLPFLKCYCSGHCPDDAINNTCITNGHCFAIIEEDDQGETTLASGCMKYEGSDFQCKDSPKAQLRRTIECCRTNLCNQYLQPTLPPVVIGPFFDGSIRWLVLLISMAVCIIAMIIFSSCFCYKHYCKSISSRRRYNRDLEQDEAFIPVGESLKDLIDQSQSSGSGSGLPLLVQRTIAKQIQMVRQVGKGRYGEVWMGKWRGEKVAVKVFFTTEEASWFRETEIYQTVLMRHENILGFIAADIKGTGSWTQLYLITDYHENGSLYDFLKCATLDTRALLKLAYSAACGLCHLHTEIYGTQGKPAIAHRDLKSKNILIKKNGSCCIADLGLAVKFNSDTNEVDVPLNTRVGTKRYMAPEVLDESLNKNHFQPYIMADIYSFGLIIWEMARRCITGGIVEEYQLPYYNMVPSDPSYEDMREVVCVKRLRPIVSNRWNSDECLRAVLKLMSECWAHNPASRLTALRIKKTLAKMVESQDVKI
Kind of assay: KinomeScan. The format is binding. Conditions: read-out: % Control.

The next assay concerns the target T3, NPBW1 (Homo sapiens, UniProt P48145).
T3 construct: host or cells: Chem-1 cells expressing Gα15
Kind of assay: GPCR Profiler. The format is cell-based.

The next assay has as its target T4, ADCK4 (Homo sapiens, UniProt Q96D53).
T4 construct: purchased DiscoveRx (Fremont, CA)
Kind of assay: KinomeScan. Conditions: read-out: % Control. The format is binding.

In a further assay the target is T5, A3 (Homo sapiens, UniProt P0DMS8).
T5 construct: host or cells: Chem-1 cells with promiscuous Gα15
T5 sequence (P0DMS8 whole entry): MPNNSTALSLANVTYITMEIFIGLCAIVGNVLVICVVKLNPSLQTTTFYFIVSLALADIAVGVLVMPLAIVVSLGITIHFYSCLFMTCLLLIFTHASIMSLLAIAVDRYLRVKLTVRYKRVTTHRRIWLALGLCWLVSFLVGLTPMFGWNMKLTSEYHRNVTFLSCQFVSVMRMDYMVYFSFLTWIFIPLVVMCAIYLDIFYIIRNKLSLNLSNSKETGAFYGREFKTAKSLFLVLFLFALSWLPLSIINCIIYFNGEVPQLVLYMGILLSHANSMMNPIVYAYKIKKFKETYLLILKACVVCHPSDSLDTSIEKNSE
Kind of assay: GPCR Profiler. The format is cell-based.

A further assay addresses T6, PCTK1 (Homo sapiens, UniProt Q00536).
T6 construct: purchased DiscoveRx
Kind of assay: KinomeScan. Conditions: read-out: % Control. The format is binding.

For a further assay, the target named is T7, PRP4 (Homo sapiens, UniProt Q13523).
T7 construct: purchased DiscoveRx (Fremont, CA)
T7 sequence (Q13523 whole entry): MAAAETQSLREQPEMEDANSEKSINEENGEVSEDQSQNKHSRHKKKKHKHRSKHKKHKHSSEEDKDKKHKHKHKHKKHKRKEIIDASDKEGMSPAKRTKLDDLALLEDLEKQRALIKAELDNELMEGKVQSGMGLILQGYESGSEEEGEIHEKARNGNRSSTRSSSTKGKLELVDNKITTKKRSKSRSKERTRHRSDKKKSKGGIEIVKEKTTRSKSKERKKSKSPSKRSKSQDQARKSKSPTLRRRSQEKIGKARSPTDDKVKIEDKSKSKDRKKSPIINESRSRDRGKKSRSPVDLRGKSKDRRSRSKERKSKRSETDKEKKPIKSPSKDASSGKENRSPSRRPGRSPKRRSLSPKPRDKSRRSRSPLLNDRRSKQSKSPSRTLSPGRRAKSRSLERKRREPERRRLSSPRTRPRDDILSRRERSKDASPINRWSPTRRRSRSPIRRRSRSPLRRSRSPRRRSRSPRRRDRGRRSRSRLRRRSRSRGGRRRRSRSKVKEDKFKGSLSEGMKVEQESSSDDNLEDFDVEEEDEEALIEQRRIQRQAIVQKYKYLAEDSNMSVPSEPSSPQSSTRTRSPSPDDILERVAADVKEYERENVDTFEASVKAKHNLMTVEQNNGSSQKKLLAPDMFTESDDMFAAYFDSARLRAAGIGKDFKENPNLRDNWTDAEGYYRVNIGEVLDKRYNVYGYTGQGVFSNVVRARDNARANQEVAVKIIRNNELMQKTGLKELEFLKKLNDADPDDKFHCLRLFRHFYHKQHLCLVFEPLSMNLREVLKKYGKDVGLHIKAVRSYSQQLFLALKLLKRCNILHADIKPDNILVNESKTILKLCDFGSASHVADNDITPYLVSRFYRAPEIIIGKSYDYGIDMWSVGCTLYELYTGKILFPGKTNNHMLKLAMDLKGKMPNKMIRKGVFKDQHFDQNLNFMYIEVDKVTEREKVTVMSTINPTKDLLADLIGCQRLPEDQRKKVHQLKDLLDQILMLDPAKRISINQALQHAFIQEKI
Kind of assay: KinomeScan. Conditions: read-out: % Control. The assay is classed as binding. How it is done:
(§1) GPCR profiling assays were performed by Millipore (St. Louis, MO) using in cells expressing Gα15, a promiscuous G protein that enhances GPCR coupling to downstream Ca2+ signaling pathways. KinomeScan was conducted by DiscoveRx (Fremont, CA).
(§2) To identify the target of OGM1, the molecule was profiled for binding in a panel of 442 kinases (KinomeScan™, DiscoveRx™) and assessed its activity against 158 GPCRs in a single-point assay in Chem-1 cells that uses a promiscuous Gα15 protein to trigger calcium flux (see Table 9 and Table 10, below). […] Table 9. KinomeScan (DiscoverRx) profiling of OGM1.

Another assay has as its target T8, CDC2L5 (Homo sapiens, UniProt Q14004).
T8 construct: purchased DiscoveRx (KinomeScan service)
Kind of assay: KinomeScan. The assay is classed as binding. Conditions: read-out: % Control. How it is done: as §1, §2

For the next assay, the target named is T9, PIP5K2C (Homo sapiens, UniProt Q8TBX8).
T9 construct: purchased DiscoveRx (Fremont, CA)
Kind of assay: KinomeScan. Conditions: read-out: % Control. The format is binding.

For another assay, the target named is T10, PK2 (Homo sapiens, UniProt Q8NFJ6).
T10 construct: host or cells: Chem-1 cells with Gα15
T10 sequence (Q8NFJ6 whole entry): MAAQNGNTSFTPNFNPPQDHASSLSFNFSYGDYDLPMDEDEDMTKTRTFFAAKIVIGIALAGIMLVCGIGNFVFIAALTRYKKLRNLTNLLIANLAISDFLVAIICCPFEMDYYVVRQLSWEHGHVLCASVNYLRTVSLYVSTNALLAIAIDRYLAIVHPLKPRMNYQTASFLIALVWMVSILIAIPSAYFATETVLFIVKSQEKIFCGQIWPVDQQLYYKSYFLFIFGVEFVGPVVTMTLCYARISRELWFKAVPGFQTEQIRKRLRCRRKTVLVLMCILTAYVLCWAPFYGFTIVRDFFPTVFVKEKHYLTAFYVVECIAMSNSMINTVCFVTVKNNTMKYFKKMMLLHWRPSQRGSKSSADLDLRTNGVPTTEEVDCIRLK
Kind of assay: GPCR Profiler. The format is cell-based.

The target in a further assay is T11, MARK2 (Homo sapiens, UniProt Q7KZI7).
T11 construct: purchased DiscoveRx (Fremont, CA)
Kind of assay: KinomeScan. The assay is classed as binding. Conditions: read-out: % Control.

For a further assay, the target named is T12, CASK (Homo sapiens, UniProt O14936).
T12 construct: purchased DiscoveRx (KinomeScan service)
Kind of assay: KinomeScan. Conditions: read-out: % Control. The format is binding.

A further assay deals with T13, PIK3CA(E545K) (Homo sapiens, UniProt P42336, E545K).
T13 construct: purchased DiscoveRx (Fremont, CA)
T13 sequence (P42336 whole entry E545K): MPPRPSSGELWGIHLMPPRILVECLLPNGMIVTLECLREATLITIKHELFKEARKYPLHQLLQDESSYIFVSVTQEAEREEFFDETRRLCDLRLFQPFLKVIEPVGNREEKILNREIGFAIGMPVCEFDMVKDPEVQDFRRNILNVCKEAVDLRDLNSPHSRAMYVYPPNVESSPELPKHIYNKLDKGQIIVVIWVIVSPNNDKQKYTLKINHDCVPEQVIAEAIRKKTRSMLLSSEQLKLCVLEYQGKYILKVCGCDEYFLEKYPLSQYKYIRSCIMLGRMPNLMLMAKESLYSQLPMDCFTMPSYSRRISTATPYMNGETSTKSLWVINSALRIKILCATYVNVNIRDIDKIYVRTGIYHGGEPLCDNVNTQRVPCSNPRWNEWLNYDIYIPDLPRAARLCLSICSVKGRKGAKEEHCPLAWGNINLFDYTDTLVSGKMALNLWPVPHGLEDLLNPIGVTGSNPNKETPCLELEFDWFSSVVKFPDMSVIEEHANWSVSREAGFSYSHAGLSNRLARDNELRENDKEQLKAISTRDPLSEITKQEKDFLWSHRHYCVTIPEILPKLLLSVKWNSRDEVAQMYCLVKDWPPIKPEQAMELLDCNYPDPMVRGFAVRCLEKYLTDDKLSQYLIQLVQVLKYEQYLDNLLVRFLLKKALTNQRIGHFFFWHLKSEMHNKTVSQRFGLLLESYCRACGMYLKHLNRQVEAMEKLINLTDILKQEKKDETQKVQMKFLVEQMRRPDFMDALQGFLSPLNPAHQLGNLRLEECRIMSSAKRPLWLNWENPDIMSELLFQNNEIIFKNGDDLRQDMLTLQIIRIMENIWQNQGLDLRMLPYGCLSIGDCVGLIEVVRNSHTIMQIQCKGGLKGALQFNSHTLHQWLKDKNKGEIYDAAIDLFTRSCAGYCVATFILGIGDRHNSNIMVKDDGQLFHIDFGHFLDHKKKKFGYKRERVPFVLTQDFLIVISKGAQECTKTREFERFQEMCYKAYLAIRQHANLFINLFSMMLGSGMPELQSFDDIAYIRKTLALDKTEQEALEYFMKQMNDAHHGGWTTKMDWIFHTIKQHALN
Kind of assay: KinomeScan. Conditions: read-out: % Control. The assay is classed as binding.

Another assay deals with T14, NK1 (Homo sapiens, UniProt P25103).
T14 construct: host or cells: Chem-1 cells expressing Gα15
T14 sequence (P25103 whole entry): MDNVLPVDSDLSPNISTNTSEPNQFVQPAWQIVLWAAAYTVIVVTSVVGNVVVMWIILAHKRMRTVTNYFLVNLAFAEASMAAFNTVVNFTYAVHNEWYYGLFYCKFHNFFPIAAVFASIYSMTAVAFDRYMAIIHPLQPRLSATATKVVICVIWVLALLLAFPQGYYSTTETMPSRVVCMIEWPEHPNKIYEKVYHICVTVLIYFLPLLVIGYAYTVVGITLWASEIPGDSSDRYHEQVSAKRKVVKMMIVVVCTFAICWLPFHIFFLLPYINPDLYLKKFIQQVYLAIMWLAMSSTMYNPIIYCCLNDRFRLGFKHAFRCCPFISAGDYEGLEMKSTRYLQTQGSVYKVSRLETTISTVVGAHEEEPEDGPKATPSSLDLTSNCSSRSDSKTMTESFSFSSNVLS
Kind of assay: GPCR Profiler. The assay is classed as cell-based.

In the next assay the target is T15, IKK-alpha (Homo sapiens, UniProt O15111).
T15 construct: purchased DiscoveRx (Fremont, CA)
Kind of assay: KinomeScan. The assay is classed as binding. Conditions: read-out: % Control.

A further assay has as its target T16, CAMK1G (Homo sapiens, UniProt Q96NX5).
T16 construct: purchased DiscoveRx (KinomeScan service)
Kind of assay: KinomeScan. The assay is classed as binding. Conditions: read-out: % Control.

The target of the next assay is T17, D1 (Homo sapiens, UniProt P21728).
T17 construct: host or cells: Chem-1 cells with Gα15
T17 sequence (P21728 whole entry): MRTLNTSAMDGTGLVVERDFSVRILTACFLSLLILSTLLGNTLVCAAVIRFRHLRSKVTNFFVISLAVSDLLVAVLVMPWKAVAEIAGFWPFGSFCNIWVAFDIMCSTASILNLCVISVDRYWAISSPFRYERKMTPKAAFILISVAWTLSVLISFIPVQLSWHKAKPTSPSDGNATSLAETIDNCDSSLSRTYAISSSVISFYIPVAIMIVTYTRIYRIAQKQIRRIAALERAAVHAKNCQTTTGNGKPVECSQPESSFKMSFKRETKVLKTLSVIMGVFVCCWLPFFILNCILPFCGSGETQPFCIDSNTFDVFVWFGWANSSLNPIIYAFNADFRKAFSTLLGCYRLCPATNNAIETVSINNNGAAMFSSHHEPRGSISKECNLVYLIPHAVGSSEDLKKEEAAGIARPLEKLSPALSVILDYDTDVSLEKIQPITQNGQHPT
Kind of assay: GPCR Profiler. The assay is classed as cell-based.

For the next assay, the system named is BxPC-3. Kind of assay: Cell Titer-Glo viability, Pancreatic adenocarcinoma. The format is cell-based. How it is done:
(§3) OGM2 kills wide variety of cancer cell types. Cell sensitivity can be classified in to Very Sensitive (LC50<2 μM), Sensitive (LC50=2 to 10 μM), Mildly Sensitive (LC50>10 μM), and Refractory (no killing at 10 μM). The listed established cell were incubated with OGM2 at 2 μM or 10 μM for 72 hours under standard cell culture conditions, and relative cell number was assessed using Cell Titer-Glo Luminescent Cell Viability Assay (Promega™) following the manufacturer's instructions. Luminescence was determined using a Cytation 5 reader and Gen5 software package (BioTek™).
(§4) Cancer cells, which are very sensitive to killing by OGM2 (LCs <2 μM), with reported mRNA expression of GPR68 and the related proton sensing receptor GPR4. LC50's (concentrations causing 50% lethality) were determined using CellTiter-Glo (Promega™, G7570). Cells were plated in 12-well plates (CELLTREAT Scientific Products, 229112) in 1 ml of DMEM with high glucose, GlutaMAX, HEPES, or RPMI 1640 with Penicillin-Streptomycin (ThermoFisher™, 10564029, 11875119 and 15140122) and 10% FBS. Cells were incubated overnight at 37° C. in 5% CO2. Then 1 mL of fresh media was added with DMSO, OGM, or positive control (Erastin; APExBIO Technology, LLC, B1524) and cells incubated for 3 days. On the third day, all media was removed, cells were rinsed with 1×PBS, PBS was removed, and 200 μL of 1× Passive Lysis Buffer (Promega™, E1941) was added to each well. […]. Subsequently, 20 μL of lysate was added to 100 μL CellTiter-Glo™ reagent on a LUMITRAC 200 plate (Greiner™ bio-one, 82050-726). Plates were briefly spun down and read on a GloMax-Multi Detection System (Promega™).
(§5) The cells listed in the tables above were incubated with OGM2 at 2 μM or 10 μM for 72 hours under standard cell culture conditions, and relative cell number was assessed using Cell Titer-Glo Luminescent Cell Viability Assay (Promega™) following the manufacturer's instructions. Luminescence was determined using a Cytation 5 reader and Gen5 software package (BioTek™). RNA expression of GPR68 and GPR4 in the corresponding cancer cell lines are listed, according to the publicly available The Human Protein Atlas version 22.0 and Ensembl version 103.38 (see proteinatlas.org). The consensus normalized expression value (“nTPM”=normalize transcript per million) was calculated as the maximum nTPM value for each gene in the two data sources.

The next assay has as its system Panc02. The assay is described as above. The assay is classed as cell-based. The protocol:
as §3, §4, §5

T3 sequence (P48145 whole entry): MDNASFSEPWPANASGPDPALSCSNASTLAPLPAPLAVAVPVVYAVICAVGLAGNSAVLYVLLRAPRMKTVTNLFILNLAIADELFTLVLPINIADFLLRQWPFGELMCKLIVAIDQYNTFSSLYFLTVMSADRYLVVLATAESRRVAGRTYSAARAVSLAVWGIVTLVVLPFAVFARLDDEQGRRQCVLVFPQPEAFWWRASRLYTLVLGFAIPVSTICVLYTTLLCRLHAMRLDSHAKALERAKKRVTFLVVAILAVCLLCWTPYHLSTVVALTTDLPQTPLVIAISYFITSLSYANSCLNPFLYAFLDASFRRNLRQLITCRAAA
T1 sequence (P42336 whole entry): as the sequence (P42336 whole entry E545K) above, with K545E counted along it
T6 sequence (Q00536 whole entry): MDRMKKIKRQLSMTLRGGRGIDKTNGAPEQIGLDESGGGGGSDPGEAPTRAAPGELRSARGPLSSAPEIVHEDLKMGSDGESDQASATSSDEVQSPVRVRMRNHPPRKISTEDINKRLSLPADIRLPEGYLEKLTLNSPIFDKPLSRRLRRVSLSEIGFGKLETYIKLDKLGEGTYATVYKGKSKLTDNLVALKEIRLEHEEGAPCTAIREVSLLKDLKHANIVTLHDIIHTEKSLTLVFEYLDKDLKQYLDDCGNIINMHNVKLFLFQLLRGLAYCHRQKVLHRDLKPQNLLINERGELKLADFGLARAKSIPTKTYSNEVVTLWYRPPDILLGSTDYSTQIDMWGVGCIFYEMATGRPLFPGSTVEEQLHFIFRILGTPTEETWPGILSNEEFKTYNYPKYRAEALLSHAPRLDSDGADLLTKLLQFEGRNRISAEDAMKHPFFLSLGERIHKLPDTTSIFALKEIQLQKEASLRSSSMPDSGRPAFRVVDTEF

For `CCc1ccc2c(c1)C1(NN=C(c3cccc4ccccc34)S1)C(=O)N2` (stereo not shown) [OGM1, 5-ethyl-5′-naphthalen-1-ylspiro[1H-indole-3,2′-3H-1,3,4-thiadiazole]-2-one], the remaining binding at 10 µM at PIK3CA was found to be 100%; at CLK1, 100%; on BMPR1A, 100%; at ADCK4 it was 70%; at PCTK1, 77%; on PRP4, 100%. The remaining binding at 10 µM at CDC2L5 stood at 99%; at PIP5K2C, 100%; on MARK2, 100%; on CASK, 90%; at PIK3CA(E545K), 100%; at IKK-alpha, 83%. For the same compound, the remaining binding at 10 µM at CAMK1G worked out at 80%. For the same compound, the Antagonism at NPBW1 (10 uM) is on record as 22.8; at A3 (10 uM), 3.2; on PK2 (10 uM), 7.2; at NK1 (10 uM), −1.4; on D1 (10 uM), 5. Further, the Agonism at NPBW1 (12.5 uM) is given as 0.5; at A3 (12.5 uM) it was −0.4; at PK2 (12.5 uM), −0.1; on NK1 (12.5 uM) it was −1.5; at D1 (12.5 uM), 0.
Take `CCc1ccc2c(c1)C1(NN=C(c3ccccc3)S1)C(=O)N2` (stereo not shown) [OGM2]: the Class result in the assay on BxPC-3 is “Mildly”; in the assay on Panc02, “Sensitive (Sensitive (LC50=2 to 10 μM))”. Moreover, the results for the “% Survival 2 μM OGM” value in the assay with BxPC-3 (72 hours) and with Panc02 (72 hours) were 81.5% and 72.5%, respectively. Further, the “% Survival 10 μM OGM” value is 83.8% with BxPC-3 (72 hours) and 40.5% with Panc02 (72 hours). In addition, the CC50 in the assay on BxPC-3 (Homo sapiens, BXPC-3, 72 hours, read-out: LC50 (the source's name)) is above 10 µM; with Panc02 (Mus musculus, Panc02, 72 hours, read-out: LC50 (the source's name)) it was 2 to 10 µM.
